This is an account of results in US12662473B2, “Inhibitors for programmed cell necrosis and preparation method therefor and use thereof” (SHANGHAI INSTITUTE OF ORGANIC CHEMISTRY, CHINESE ACADEMY OF …, priority 2019, dated 2026).

Read-outs that look alike come from different tables or passages of the source.

One experiment concerns FADD−/− Jurkat cells. Briefly: TNF-induced programmed cell necrosis inhibition, Cell Titer-Glo viability. The experiment is classed as cell-based. The note with it: Homo sapiens, Jurkat. A digest of the protocol:
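FADD-deficient Jurkat cells (2.5×10^5/mL) were pretreated 1 h at 37 °C with compound plus Smac (50 nM as added), then stimulated with TNFα (50 ng/mL as added) for 14 h at 37 °C, 5% CO2. Viability was measured as ATP by CellTiter-Glo luminescence, with unstimulated DMSO wells as 100%. EC50 values were derived.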
On the technique in general: ATP-based viability assays read luminescence as a measure of living cells.

For another experiment, the system named is L929 cells. The experiment is described as above. The experiment is classed as cell-based, mouse. The note with it: Mus musculus, read-out: EC50 inhibitory activity on programmed cell necrosis. The gist of the method: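 L929 mouse fibroblasts were pretreated 1 h at 37 °C with compound plus Smac (500 nM solution added), then stimulated with TNFα (500 ng/mL solution added) for 14 h. Viability was read as ATP by CellTiter-Glo luminescence, with unstimulated DMSO wells set to 100%, and EC50 values were calculated.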

For the next experiment, the system named is RIPK1 (S161E). Briefly: Effect of RIPK1 S161E mutation on compound activity (S161E MEFs western blot and cell death with TNFα and 5z7). The note with it: FIG. 6. The experiment is classed as cell-based, mouse. As to the method: The biological test protocol used in this experiment was to test the effect of serine mutation at position 161 of RIPK1 to glutamic acid on the activity of the compound. The experiment was verified by two aspects. On the one hand, the mouse-derived MEFs cells in which RIPK1 (S161E) was put back after knocking out RIPK1 were treated with the compound of the present invention, and the phosphorylation state of RIPK1 was detected by western-blot; on the other hand, whether the compounds of the present invention have inhibitory effect on RIPK1-dependent apoptosis in the above-mentioned S161E cells was detected.
1. S161E MEFs cells were digested, and then diluted to 1.5×10^5/ml, and the cells were seeded into 6-well plates with 2 ml per well. The plate was placed in a cell incubator (37° C., 5% CO2) for 12 hours. 0.4 μL of compound 4-8 (50 mM in DMSO) or 0.4 μL of Nec-1s (50 μM in DMSO) was added to the wells respectively, 0.4 μL of DMSO was added to the control group. […] The BCA protein quantification kit was used to detect the protein content of each group, and PIPA lysis buffer was used to adjust the protein amount to make the final volume of 100 μL. […] The cells were incubated at room temperature for 30 min, and the luminescence value was detected to measure the level of intracellular ATP. […]
Background: In western blotting, separated proteins are transferred to a membrane and probed.

Where [1] appears, read: 14 h, TNFa + SM164, read-out: EC50 inhibitory activity on programmed cell necrosis.
Setting [2] is: TNFa, read-out: EC50 inhibitory activity on programmed cell necrosis.
Setting [3] is: L929, 14 h, L929 cells (mouse), TNFa + SM164.

Consider `Cc1ccc(C2CCCN2C(=O)C(C)(C)Oc2ccc(Cl)cc2)cc1` (centres unmarked) [QY-4-8], for which the EC50 in the experiment with FADD−/− Jurkat cells (setting [1]) came to 568 nM; with FADD−/− Jurkat cells (setting [2]), 91 nM; with L929 cells (setting [3]), 139 nM; in the experiment with L929 cells (L929, L929 cells (mouse), TNFa), 50 nM. For the same compound, the “inhibition of programmed cell necrosis after mutation of serine 161 of RIPK1 to glutamic acid” value in the experiment with RIPK1 (S161E) is “can still inhibit the programmed cells necrosis”.

With `C#Cc1ccc(OC(C)(C)C(=O)N2CCCC2c2ccc(C)cc2)cc1` (centres unmarked) [QY-14-68], the EC50 in the experiment on FADD−/− Jurkat cells (setting [1]) came to 180 nM; in the experiment with FADD−/− Jurkat cells (setting [2]), 17.2 nM; in the experiment on L929 cells (setting [3]), 102 nM; in the experiment on L929 cells (L929, L929 cells (mouse), TNFa), 21 nM.

With `Cc1ccc(C2CCCN2C(=O)C(C)(C)Oc2ccc(C#CC(C)(C)O)cc2)cc1` (centres unmarked) [QY-15-11], the EC50 with FADD−/− Jurkat cells (setting [1]) is more than 10000 nM; in the experiment on FADD−/− Jurkat cells (setting [2]), more than 10000 nM; in the experiment with L929 cells (setting [3]), more than 10000 nM; in the experiment with L929 cells (L929, L929 cells (mouse), TNFa), 2840 nM.

Regarding `Cc1ccc(C2CCCN2C(=O)C(C)(C)Oc2ccc(C#Cc3cccnc3)cc2)cc1` (centres unmarked) [QY-15-12], the EC50 is more than 10000 nM in the experiment with FADD−/− Jurkat cells (setting [1]); more than 10000 nM in the experiment with FADD−/− Jurkat cells (setting [2]); more than 10000 nM in the experiment with L929 cells (setting [3]); 5160 nM with L929 cells (L929, L929 cells (mouse), TNFa).

Turning to `Cc1ccc(C2CCCN2C(=O)C(C)(C)Oc2ccc(C#CC3CCNCC3)cc2)cc1` (centres unmarked) [QY-15-31], the EC50 in the experiment with FADD−/− Jurkat cells (setting [1]) is more than 10000 nM; in the experiment on FADD−/− Jurkat cells (setting [2]), 818 nM; with L929 cells (setting [3]), more than 10000 nM; in the experiment on L929 cells (L929, L929 cells (mouse), TNFa), 82.4 nM.

Turning to `[2H]C([2H])([2H])c1ccc(C2CCCN2C(=O)C(C)(C)Oc2ccc(Cl)cc2F)cc1` (centres unmarked) [XHJ-3-22], the EC50 in the experiment on FADD−/− Jurkat cells (setting [1]) turned out to be 1460 nM; in the experiment with L929 cells (setting [3]), 302 nM; with L929 cells (L929, L929 cells (mouse), TNFa) it was 40 nM.

Consider `CC(C)(Oc1ccc(Cl)cc1F)C(=O)N1N=CCC1c1ccccc1` (centres unmarked) [ZSQ13-56, 2-(4-Chloro-2-fluorophenoxy)-2-methyl-1-(5-phenyl-4,5-dihydro-1H-pyrazol-1-yl)propan-1-one], for which the EC50 with FADD−/− Jurkat cells (setting [1]) was found to be 424 nM; in the experiment with FADD−/− Jurkat cells (setting [2]), 49 nM; with L929 cells (setting [3]), 201 nM; in the experiment on L929 cells (L929, L929 cells (mouse), TNFa) it was 28 nM.

With `CC(C)(Oc1ccc(Cl)cc1F)C(=O)N1N=CCC1c1ccc(F)cc1` (centres unmarked) [ZSQ13-57], the EC50 with FADD−/− Jurkat cells (setting [1]) is 370 nM; with FADD−/− Jurkat cells (setting [2]), 26 nM; in the experiment on L929 cells (setting [3]), 112 nM; with L929 cells (L929, L929 cells (mouse), TNFa) it was 10 nM.

A word on the EC50: it is the concentration needed to bring the measured effect to its halfway point.
